Experimental data taken from patent publication US6339103B1, “Fungicides” (Aventis CropScience UK Limited, priority 1998, dated 2002).

Tested on: Plasmopara viticola
Experiment: Vine downy mildew disease control, foliar spray on vines
Format: in vivo
Settings: aqueous solution sprayed onto vines to run off, then inoculated with 100,000 spores per ml, compared with untreated plants
Method: Aqueous solutions of the compound of Example 1 were sprayed at various concentrations onto vines to run off using a hand-sprayer. Plants were then inoculated by hand spraying with a spore suspension of 100,000 spores per ml of Plasmopara viticola. For the purposes of comparison the vines were sprayed also with the commercially available propamocarb hydrochloride.
Plants were assessed for degree of disease control compared with untreated plants.

SMILES | % Control (rate 400 ppm) [%] | % Control (rate 800 ppm) [%]
CCCOC(=O)NCCCN(C)C.Cl [propamocarb hydrochloride, propyl 3-(dimethylamino)propylcarbamate hydrochloride] | 4.2 | 14.6
CCCOC(=O)NCCCN(C)C.CCO[PH](=O)O [Compound of invention, dimethyl-[3-(propoxycarbonylamino)propyl]ammonium O-ethylphosphonate] | 27.6 | 81.5
